# Values of other authors in patent publication US11865206B2 (priority 2018, dated 2024).
# Where two headings read alike, the source gives them in different places.
# Tests used:
# [1] = not given; remark: listed apart in the source
smiles,measurement,setting,value
"O=NN(CCCl)C(=O)NCCCl [Carmustine, 1,3-bis(2-chloroethyl)-1-nitrosourea]",Solubility,in alcohol and lipids,highly soluble
same,Solubility,in water,poorly soluble
same,Crossing of the blood brain barrier,[1]; following IV infusion,can cross the blood brain barrier
same,Oral bioavailability,[1]; oral,poor oral bioavailability
